Assay results as given in patent US10308667B2, “Oxadiazolopyridine derivatives for use as ghrelin O-acyl transferase (GOAT) inhibitors” (Boehringer Ingelheim International GmbH, priority 2016, dated 2019).

Biological target: human GOAT (Homo sapiens (Human), UniProt Q96T53)
Assay: Determination of hGOAT Activity in HEK293 Cells after Incubation with Test Compound
Type: cell-based
Details: HEK293 cells stably transfected with preproghrelin and human GOAT; octanoate-BSA 100 μM; acyl-ghrelin in medium by ELISA after 5 hours
Procedure: Determination of hGOAT Activity in HEK293 Cells after Incubation with Test Compound
HEK293 cells stably transfected with two expression vectors, one coding for preproghrelin cDNA and a second for the expression of human GOATcDNA are used as a cellular model. After feeding the cells with octanoic acid for 5 hours, acyl-ghrelin is measured in cell culture medium by an ELISA procedure.
Cellline: Hek293 hGOAT/PPGhrl Clone #1B8Sodium octanoate, Sigma, Cat.-No. C5038
BD Poly-D-Lysin 384-well Plates, black-clear polystyrene BD Bioscience Cat.-No. […] ELISA human acylated Ghrelin Kit purchased from Bertin Pharman (detailed composition of buffers e.g. wash-puffer, ELISA buffer not known)
Cells are plated with a density of 5000 cells/well in 384-well poly-D-lysin plates and incubated for 1 day at 37° C., 5% CO2 in DMEM medium, 10% FCS, 1×NEAA, Puromycin (0.5 μg/ml) and G418 (1 mg/ml). Then the medium is changed to a identical medium without FCS and containing Octanoate-BSA (final concentration 100 μM each) and compound in DMSO (final DMSO concentration 0.3%). After incubation for 5 hours acylghrelin in the medium is measured by ELISA
The medium sample is diluted 1:25 in Elisa buffer, A 25 ul aliquot is transferred to a 384-well ELISA plate previously washed 4 times with 100 μL wash buffer, and 25 μl tracer-solution is added. After incubation overnight (˜20 h) at 4° C. temperature the plate is washed 4 times with 100 μl wash-buffer per well. Finally 50 μl Ellman's reagent is added to each well and the plate is incubated in the dark for 20 minutes. The absorbance is measured at 405 nm in an Envision multilabel reader and the amount of acylated ghrelin is calculated according to a acylated ghrelin standard curve provided in the same plate.
The analysis of the data is performed by calculation of the percentage of acyl-ghrelin produced in the presence of test compound compared to the amount of acyl-ghrelin produced in the vehicle control samples. An inhibitor of the GOAT enzyme will give values between 100% CTL (no inhibition) and 0% CTL (complete inhibition). IC50 values are calculated with Assay Explorer or other suited software based on curve fitting of results of 8 different compound concentrations.

Chain of human GOAT (Q96T53 whole entry): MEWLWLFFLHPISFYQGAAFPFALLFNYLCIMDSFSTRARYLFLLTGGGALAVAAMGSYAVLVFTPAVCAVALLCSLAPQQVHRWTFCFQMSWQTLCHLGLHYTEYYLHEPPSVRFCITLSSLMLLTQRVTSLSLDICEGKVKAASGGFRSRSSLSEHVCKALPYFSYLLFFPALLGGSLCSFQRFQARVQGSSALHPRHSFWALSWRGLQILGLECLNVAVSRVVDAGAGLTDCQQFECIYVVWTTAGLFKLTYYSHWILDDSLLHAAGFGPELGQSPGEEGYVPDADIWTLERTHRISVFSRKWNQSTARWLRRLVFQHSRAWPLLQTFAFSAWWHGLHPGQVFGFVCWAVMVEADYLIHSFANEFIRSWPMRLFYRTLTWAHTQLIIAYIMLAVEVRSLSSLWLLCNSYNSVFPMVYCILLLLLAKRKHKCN

IC50 | SMILES
0.56 nM | Cc1nc2nonc2c(N)c1Cc1ccc(NCCF)c(C#N)n1 [Example 153, 6-(7-Amino-5-methyl-[1,2,5]oxadiazolo[3,4-b]pyridin-6-ylmethyl)-3-(2-fluoro-ethylamino)-pyridine-2-carbonitrile]
0.98 nM | Cc1nc2nonc2c(N)c1Cc1ccc(C#N)c(OC2COC2)n1 [Example 104, 6-(7-Amino-5-methyl-[1,2,5]oxadiazolo[3,4-b]pyridin-6-ylmethyl)-2-(oxetan-3-yloxy)-nicotinonitrile]
0.085 nM | Cc1nc2nonc2c(N)c1Cc1ccc(Oc2ccccc2)c(C#N)n1 [Example 118, 6-(7-Amino-5-methyl-[1,2,5]oxadiazolo[3,4-b]pyridin-6-ylmethyl)-3-phenoxy-pyridine-2-carbonitrile]
0.12 nM | Cc1nc2nonc2c(N)c1Cc1ccc(C#N)c(Cl)n1 [Example 24, 6-(7-Amino-5-methyl-[1,2,5]oxadiazolo[3,4-b]pyridin-6-ylmethyl)-2-chloro-nicotinonitrile]
0.15 nM | Cc1nc2nonc2c(N)c1Cc1ccc(C(F)(F)F)c(C(=O)C(C)C)n1 [Example 49, 1-[6-(7-Amino-5-methyl-[1,2,5]oxadiazolo[3,4-b]pyridin-6-ylmethyl)-3-trifluoromethyl-pyridin-2-yl]-2-methyl-propan-1-one]
8.8 nM | Cc1nc2nonc2c(N)c1Cc1cc(C(F)(F)F)ccn1 [Example 26, 5-Methyl-6-(4-trifluoromethyl-pyridin-2-ylmethyl)-[1,2,5]oxadiazolo[3,4-b]pyridin-7-ylamine]
0.038 nM | Cc1nc2nonc2c(N)c1Cc1ccc(OC(F)F)c(Br)n1 [Example 15, 6-(6-Bromo-5-difluoromethoxy-pyridin-2-ylmethyl)-5-methyl-[1,2,5]oxadiazolo[3,4-b]pyridin-7-ylamine]
0.1 nM | Cc1nc2nonc2c(N)c1Cc1ccc(Br)c(NCC(C)(C)C#N)n1 [Example 127, 3-[6-(7-Amino-5-methyl-[1,2,5]oxadiazolo[3,4-b]pyridin-6-ylmethyl)-3-bromo-pyridin-2-ylamino]-2,2-di methyl-propionitrile]
0.12 nM | Cc1nc2nonc2c(N)c1Cc1ccc(C#N)c(OCC(C)(C)O)n1 [Example 105, 6-(7-Amino-5-methyl-[1,2,5]oxadiazolo[3,4-b]pyridin-6-ylmethyl)-2-(2-hydroxy-2-methyl-propoxy)-nicotinonitrile]
6.9 nM | Cc1nc2nonc2c(N)c1Cc1cc(C(F)(F)F)cc(C#N)n1 [Example 36, 6-(7-amino-5-methyl-[1,2,5]oxadiazolo[3,4-b]pyridin-6-ylmethyl)-4-(trifluoromethyl)pyridine-2-carbonitrile]
0.033 nM | Cc1nc2nonc2c(N)c1Cc1ccc(Br)c(N2CC(C)(O)C2)n1 [Example 122, 1-[6-(7-Amino-5-methyl-[1,2,5]oxadiazolo[3,4-b]pyridin-6-ylmethyl)-3-bromo-pyridin-2-yl]-3-methyl-azetidin-3-ol]
0.086 nM | Cc1nc2nonc2c(N)c1Cc1ccc(C#N)c(OCC(C)(F)F)n1 [Example 103, 6-(7-Amino-5-methyl-[1,2,5]oxadiazolo[3,4-b]pyridin-6-ylmethyl)-2-(2,2-difluoro-propoxy)-nicotinonitrile]
0.074 nM | Cc1nc2nonc2c(N)c1Cc1ccc(Br)c(OCCCF)n1 [Example 101, 6-[5-Bromo-6-(3-fluoro-propoxy)-pyridin-2-ylmethyl]-5-methyl-[1,2,5]oxadiazolo[3,4-b]pyridin-7-ylamine]
0.44 nM | Cc1nc2nonc2c(N)c1Cc1ccc(C(F)F)cn1 [Example 9, 6-(5-Difluoromethyl-pyridin-2-ylmethyl)-5-methyl-[1,2,5]oxadiazolo[3,4-b]pyridin-7-ylamine]
2.7 nM | Cc1nc2nonc2c(N)c1Cc1ncc(C(F)(F)F)c(C#N)n1 [Example 75, 2-(7-amino-5-methyl-[1,2,5]oxadiazolo[3,4-b]pyridin-6-ylmethyl)-5-(trifluoromethyl)pyrimidine-4-carbonitrile]
3.3 nM | Cc1nc2nonc2c(N)c1Cc1ccc(S(C)(=O)=O)cn1 [Example 88, 6-(5-Methanesulfonyl-pyridin-2-ylmethyl)-5-methyl-[1,2,5]oxadiazolo[3,4-b]pyridin-7-ylamine]
0.027 nM | Cc1nc2nonc2c(N)c1Cc1ccc(C#N)c(N2CC(F)(F)C2)n1 [Example 142, 6-(7-Amino-5-methyl-[1,2,5]oxadiazolo[3,4-b]pyridin-6-ylmethyl)-2-(3,3-difluoro-azetidin-1-yl)-nicotinonitrile]

IC50 | SMILES
14 nM | Cc1nc2nonc2c(N)c1Cc1nc(C#N)cc(C(F)F)n1 [Example 165, 2-(7-amino-5-methyl-[1,2,5]oxadiazolo[3,4-b]pyridin-6-ylmethyl)-6-(difluoromethyl)pyrimidine-4-carbonitrile]
15 nM | Cc1nc2nonc2c(N)c1Cc1ccc(S(C)(=O)=O)c(O)n1 [Example 159, 6-(7-Amino-5-methyl-[1,2,5]oxadiazolo[3,4-b]pyridin-6-ylmethyl)-3-methanesulfonyl-pyridin-2-ol]
0.082 nM | Cc1nc2nonc2c(N)c1Cc1ccc(OC(F)F)c(C#N)n1 [Example 70, 6-(7-Amino-5-methyl-[1,2,5]oxadiazolo[3,4-b]pyridin-6-ylmethyl)-3-difluoromethoxy-pyridine-2-carbonitrile]
0.038 nM | Cc1nc2nonc2c(N)c1Cc1ccc(Br)c(NC2CC2)n1 [Example 125, 6-(5-Bromo-6-cyclopropylamino-pyridin-2-ylmethyl)-5-methyl-[1,2,5]oxadiazolo[3,4-b]pyridin-7-ylamine]
0.18 nM | Cc1nc2nonc2c(N)c1Cc1ccc(C(F)(F)F)c(C#N)n1 [Example 48, 6-(7-Amino-5-methyl-[1,2,5]oxadiazolo[3,4-b]pyridin-6-ylmethyl)-3-trifluoromethyl-pyridine-2-carbonitrile]
0.2 nM | Cc1nc2nonc2c(N)c1Cc1ccc(C#N)c(NCC2(C)COC2)n1 [Example 135, 6-(7-Amino-5-methyl-[1,2,5]oxadiazolo[3,4-b]pyridin-6-ylmethyl)-2-[(3-methyl-oxetan-3-ylmethyl)-amino]-nicotinonitrile]
0.33 nM | Cc1nc2nonc2c(N)c1Cc1ccc(C#N)c(OCC(F)(F)F)n1 [Example 107, 6-(7-Amino-5-methyl-[1,2,5]oxadiazolo[3,4-b]pyridin-6-ylmethyl)-2-(2,2,2-trifluoro-ethoxy)-nicotinonitrile]
0.59 nM | Cc1nc2nonc2c(N)c1Cc1ncc(C#N)c(C(F)F)n1 [Example 79, 2-(7-amino-5-methyl-[1,2,5]oxadiazolo[3,4-b]pyridin-6-ylmethyl)-4-(difluoromethyl)pyrimidine-5-carbonitrile]
0.22 nM | Cc1nc2nonc2c(N)c1Cc1ccc(OC(F)(F)F)cn1 [Example 17, 5-Methyl-6-(5-trifluoromethoxy-pyridin-2-ylmethyl)-[1,2,5]oxadiazolo[3,4-b]pyridin-7-ylamine]
14 nM | Cc1nc2nonc2c(N)c1Cc1cc(C#N)c(C#N)cn1 [Example 76, 6-(7-amino-5-methyl-[1,2,5]oxadiazolo[3,4-b]pyridin-6-ylmethyl)pyridine-3,4-dicarbonitrile]
0.72 nM | Cc1nc2nonc2c(N)c1Cc1cccc(C(N)=O)n1 [Example 56, 6-(7-Amino-5-methyl-[1,2,5]oxadiazolo[3,4-b]pyridin-6-ylmethyl)-pyridine-2-carboxylic Acid Amide]
0.15 nM | Cc1nc2nonc2c(N)c1Cc1ccc(C#N)c(NCC(C)(C)C(N)=O)n1 [Example 148, 3-[6-(7-Amino-5-methyl-[1,2,5]oxadiazolo[3,4-b]pyridin-6-ylmethyl)-3-cyano-pyridin-2-ylamino]-2,2-dimethyl-propionamide]
0.055 nM | Cc1nc2nonc2c(N)c1Cc1ccc(C#N)c(NCCC(F)F)n1 [Example 144, 6-(7-Amino-5-methyl-[1,2,5]oxadiazolo[3,4-b]pyridin-6-ylmethyl)-2-(3,3-difluoro-propylamino)-nicotinonitrile]
0.13 nM | Cc1nc2nonc2c(N)c1Cc1ccc(C(C)(F)F)cn1 [Example 11, 6-[5-(1,1-Difluoro-ethyl)-pyridin-2-ylmethyl]-5-methyl-[1,2,5]oxadiazolo[3,4-b]pyridin-7-ylamine]
1.7 nM | Cc1nc2nonc2c(N)c1Cc1ccc(C#N)c(C#N)n1 [Example 158, 6-(7-Amino-5-methyl-[1,2,5]oxadiazolo[3,4-b]pyridin-6-ylmethyl)-pyridine-2,3-dicarbonitrile]
0.46 nM | Cc1nc2nonc2c(N)c1Cc1cccc(Cl)n1 [Example 3, 6-(6-Chloro-pyridin-2-ylmethyl)-5-methyl-[1,2,5]oxadiazolo[3,4-b]pyridin-7-ylamine]
